Experimental data as given in US8338565B2, “Macrocyclic compounds for inhibition of tumor necrosis factor alpha” (Ensemble Therapeutics Corporation, priority 2008, dated 2012).
Read-outs that look alike come from different tables or passages of the source. Numbered stars: 1 amine (or outer) side, 2 acyl side, 3 side chain; on linkers, the order of the positions; unused ones are H or OH. Bridge positions count the residues as written; N and C are the ends. Square brackets hold non-standard residues; d marks the D form. Peptide text beside a SMILES is read from it. Bip(4'-Cl) = N[C@@H](Cc1ccc(-c2ccc(Cl)cc2)cc1)C(=O)O; Phe(4-CF3) = N[C@@H](Cc1ccc(C(F)(F)F)cc1)C(=O)O; Phe(2,4-Cl2) = N[C@@H](Cc1ccc(Cl)cc1Cl)C(=O)O; Bip = N[C@@H](Cc1ccc(-c2ccccc2)cc1)C(=O)O; dPhe(4-NH2) = Nc1ccc(C[C@@H](N)C(=O)O)cc1; Phe(4-NH2) = Nc1ccc(C[C@H](N)C(=O)O)cc1; d(hPhe) = N[C@H](CCc1ccccc1)C(=O)O; d2Thi = N[C@H](Cc1cccs1)C(=O)O; Suc = O=C(CCC(=O)[*:2])[*:1]; Ac3c = NC1(C(=O)O)CC1; GABA = NCCCC(=O)O; βAla = NCCC(=O)O

How the values were obtained:
[1] = molecular target: T1, TNFα / TNFα receptor (TNFα R1/Fc) (Homo sapiens, UniProt P01375); test: Inhibition of binding of TNFα to the TNFα receptor (plate ELISA competition); settings: Table 2
T1 construct: purchased R&D Systems
T1 sequence (P01375 77-233 limits assumed, species assumed): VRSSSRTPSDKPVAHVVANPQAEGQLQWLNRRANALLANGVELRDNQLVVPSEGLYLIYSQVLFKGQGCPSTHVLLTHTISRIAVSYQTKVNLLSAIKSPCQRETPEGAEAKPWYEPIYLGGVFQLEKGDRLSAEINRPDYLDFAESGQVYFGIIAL
Outline: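 Plates were coated with TNFα at 15 nM. Test compound and 8.33 nM receptor-Fc (PBST, 2% DMSO) were first mixed in solution for 30 min at room temperature, then transferred to the plates for another 30 min. Competition was read by absorbance at 450 nm after HRP anti-human IgG Fc detection with TMB.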

[2] = test system: TNF-α (degradation of IkB in HeLa cells or A431 cells); test: Human cell-based assay: inhibition of TNF-α induced degradation of IkB; settings: for inhibition at 5 µM: read-out: Inhibition at Various Compound Concentrations, 5 μM; for inhibition at 10 µM: read-out: Inhibition at Various Compound Concentrations, 10 μM; for inhibition at 25 µM: 25 μM compound, read-out: Inhibition at Various Compound Concentrations, 25 μM
Experimental: We used a human cell-based assay to determine the TNF-α antagonistic activity of the compounds of this invention based upon the ability of the compounds to inhibit the degradation of IkB in those cells. The assay was performed on either HeLa cells or A431 cells.
On Day 1, wells of a 24-well tissue culture plate were seeded with cells that had been harvested from cultures in T-75 flasks by standard trypsin/EDTA treatment. The harvested cells were suspended in EMEM/10% FBS/P/S (100,000 HeLa cells/mL or 200,000 A431 cells/mL) and 1 mL aliquots were placed into each well. The cells were incubated overnight at 37° C. in a humidified CO2 incubator. On day 2, the cells were approximately 95% confluent.
Test and control compounds were diluted to a 1 mM solution by dilution in DMSO. The assay was run in Costar tubes. Into each tube was placed 2.5 or 5.0 μL of test compound (for testing 5 μM and 10 μM concentrations, respectively), 2.5 μL of 100× TNF-α solution (200 ng/mL TNF-α in EMEM containing 1μg/mL cycloheximide) and, for those tubes containing 2.5 μL of compound, an additional 2.5 μL of DMSO. To each tube was then added 0.5 mL of EMEM containing 1μg/mL cycloheximide. Negative control tubes contained either a) no compound, or b) no TNF-α. Tubes were then incubated for 30 minutes at room temperature.
Once incubation had begun, the media was aspirated from the cells in the 24-well plates. Sufficient EMEM/10% FBS/P/S containing 1 ug/mL cycloheximide was then added to cover the cells (approximately 3 mL) and the cells were retuned to the 37° C. humidified CO2 incubator until compound incubation was completed. The media was then aspirated from the cells, 0.2 mL of the compound solution was added and the cells re-incubated at 37° C. for 30 minutes. The plates were then placed on ice, the compound solution was aspirated from each well, and the cells washed once with 1 mL of cold PBS. Cells were then fixed with 500 μL of 3.7% formaldehyde in PBS (“fix solution”) for 20 minutes at room temperature. The fix solution was decanted and the cells permeabilized by 4× washing with 500 uL PBS/0.1% Triton X-100. After the final permeabilization wash, the cells were treated with 500 uL of Odyssey blocking buffer (OBB) and incubated at room temperature with shaking for 90 minutes.
The OBB was decanted and then to each well was then added 125 μL each of mouse anti-IkB CST#4814 (diluted 1:200 in OBB) and rabbit anti-beta-tubulin CST#2146 (diluted 1:200 in OBB). Plates were sealed with parafin and incubated overnight at room temperature with shaking.
On day 3, the antibody solution was removed from the cells and the cells were washed 5× with 0.5 mL PBST for five minutes each on a shaker. To each well was then aded 125 μL of a secondary antibody solution containing goat anti-mouse IgG-IRDye 800 and goat anti-rabbit IgG-IRDye (each diluted 1:500 in OBB+0.2% Tween 20). The plates were covered with aluminum foil and incubated for 1 hour at room temperature with shaking. The secondary antibody solution was removed and the cells washed 3× with 0.5 mL PBST for five minutes each on a shaker. Cells were then scanned by LICOR with the following settings: 700 intensity=6.0, 800 intensity=6.5; microplate2 settings with 3.0 mm offset; 169 resolution. LICOR values were fitted to an equation for a sigmoidal curve and IC50 values calculated from the fitted parameters. […] Blank cells indicate that the compound was not tested at that concentration. Certain compounds that were tested more than once and the values reflect the average of the multiple tests.

[3] = read-out: Activity (IC50, inhibition of TNFα binding to TNFα R1/Fc)
[4] = 5 μM compound, HeLa or A431 cells
[5] = 10 μM compound, HeLa or A431 cells

SMILES	IC50 [1, 3]	inhibition at 5 µM [2, 4]	inhibition at 10 µM [2, 5]	inhibition at 5 µM [2]	inhibition at 10 µM [2]	IC50 ([1]; Activity (IC50, inhibition of TNFα binding to TNFα R1/Fc))	inhibition at 25 µM ([2]; HeLa or A431 cells)
O=C(O)CCCCCNC(=O)[C@@H]1Cc2ccc(cc2)OCC(=O)N[C@H](Cc2cccs2)C(=O)N[C@@H](Cc2ccc(-c3ccccc3)cc2)C(=O)N[C@H](CCc2ccccc2)C(=O)N1 [Compound 395]	< 10 µM	< 10%	< 10%				
O=C1COc2ccc(cc2)C[C@@H](C(=O)O)NC(=O)[C@H](Cc2ccccc2)NC(=O)[C@H](Cc2ccc(-c3ccncc3)cc2)NC(=O)[C@H](Cc2cccs2)N1 [Compound 366]	< 10 µM			< 10%	< 10%		
O=C(O)CCNC(=O)[C@H]1Cc2ccc(cc2)NC(=O)CCC(=O)N[C@H](CCc2ccccc2)C(=O)N[C@@H](Cc2ccc(C(F)(F)F)cc2)C(=O)N[C@H](Cc2ccccc2)C(=O)N1 [Compound 15] ([d(hPhe)][Phe(4-CF3)][dF][dPhe(4-NH2)][βAla]-OH; linker N-4 via Suc)	10 to 30 µM		< 10%				
O=C1N[C@H](CCc2ccccc2)C(=O)N[C@@H](C(=O)O)Cc2ccc(cc2)NC(=O)[C@H](O)[C@@H](O)C(=O)N[C@H](Cc2ccccc2)C(=O)N[C@H]1Cc1ccc(Br)cc1 [Compound 237]	< 10 µM	< 10%	< 10%				
O=C1CCC(=O)N[C@H](Cc2cccs2)C(=O)N[C@@H](Cc2ccc(-c3ccccc3)cc2)C(=O)N[C@H](Cc2ccccc2)C(=O)N[C@H](C(=O)NC2(C(=O)O)CC2)Cc2ccc(cc2)N1 [Compound 39] ([d2Thi][Bip][dF][Phe(4-NH2)][Ac3c]-OH; linker N-4 via Suc)	< 10 µM		10 to 50%				
O=C(O)CCCNC(=O)[C@@H]1Cc2ccc(cc2)OCC(=O)N[C@@H](Cc2cccs2)C(=O)N[C@H](Cc2ccc(-c3ccccc3)cc2)C(=O)N[C@@H](Cc2ccccc2)C(=O)N1 [Compound 386]	< 10 µM	< 10%	< 10%				
C[C@H](NC(=O)[C@@H]1Cc2ccc(cc2)OCC(=O)N[C@H](Cc2cccs2)C(=O)N[C@@H](Cc2ccc(-c3ccccc3)cc2)C(=O)N[C@H](CCc2ccccc2)C(=O)N1)C(=O)O [Compound 302]	< 10 µM	10 to 50%	10 to 50%				
O=C(O)[C@@H]1Cc2ccc(cc2)NC(=O)[C@H](O)[C@@H](O)C(=O)N[C@H](Cc2cccs2)C(=O)N[C@@H](Cc2ccc(-c3ccccc3)cc2)C(=O)N[C@@H](CCc2ccccc2)C(=O)N1 [Compound 290]	< 10 µM	< 10%	< 10%				
O=C1COc2ccc(cc2)C[C@@H](C(=O)NC2(C(=O)O)CC2)NC(=O)[C@H](Cc2ccccc2)NC(=O)[C@@H](Cc2ccc(-c3ccccc3)cc2)NC(=O)[C@H](Cc2cccs2)N1 [Compound 391]				10 to 50%	10 to 50%	< 10 µM	
O=C1CCC(=O)N[C@H](Cc2cccs2)C(=O)N[C@@H](Cc2ccc(-c3ccccc3)cc2)C(=O)N[C@H](CCc2ccccc2)C(=O)N[C@H](C(=O)O)Cc2ccc(cc2)N1 [Compound 47] ([d2Thi][Bip][d(hPhe)][Phe(4-NH2)]-OH; linker N-4 via Suc)	< 10 µM		< 10%				
CC(C)(NC(=O)[C@@H]1Cc2ccc(cc2)OCC(=O)N[C@H](Cc2cccs2)C(=O)N[C@@H](Cc2ccc(-c3ccccc3)cc2)C(=O)N[C@H](CCc2ccccc2)C(=O)N1)C(=O)O [Compound 297]	< 10 µM	< 10%	< 10%				
O=C1CCC(=O)N[C@H](CCc2ccccc2)C(=O)N[C@@H](Cc2ccc(-c3ccc(Cl)cc3)cc2)C(=O)N[C@H](Cc2ccccc2)C(=O)N[C@H](C(=O)O)Cc2ccc(cc2)N1 [Compound 116] ([d(hPhe)][Bip(4'-Cl)][dF][Phe(4-NH2)]-OH; linker N-4 via Suc)	< 10 µM	10 to 50%	< 10%				
O=C1CCC(=O)N[C@H](CCc2ccccc2)C(=O)N[C@@H](Cc2ccc(-c3ccccc3)cc2)C(=O)N[C@H](Cc2ccccc2)C(=O)N[C@H](C(=O)O)Cc2ccc(cc2)N1 [Compound 117] ([d(hPhe)][Bip][dF][Phe(4-NH2)]-OH; linker N-4 via Suc)	< 10 µM	< 10%	50 to 80%				
O=C1CCC(=O)N[C@H](Cc2cccs2)C(=O)N[C@@H](Cc2ccc(-c3ccccc3)cc2)C(=O)N[C@H](Cc2ccccc2)C(=O)N[C@@H](C(=O)O)Cc2ccc(cc2)N1 [Compound 196] ([d2Thi][Bip][dF][dPhe(4-NH2)]-OH; linker N-4 via Suc)	< 10 µM						< 10%
COC(=O)[C@H](CC(=O)O)NC(=O)[C@@H]1Cc2ccc(cc2)NC(=O)CCC(=O)N[C@H](Cc2cccs2)C(=O)N[C@@H](Cc2ccc(-c3ccccc3)cc2)C(=O)N[C@H](Cc2ccccc2)C(=O)N1 [Compound 29] ([d2Thi][Bip][dF][Phe(4-NH2)]D-OMe; linker N-4 via Suc)	< 10 µM						< 10%
C[C@H](NC(=O)[C@@H]1Cc2ccc(cc2)OCC(=O)N[C@@H](Cc2cccs2)C(=O)N[C@@H](Cc2ccc(-c3ccccc3)cc2)C(=O)N[C@@H](Cc2ccccc2)C(=O)N1)C(=O)O [Compound 326]	< 10 µM	10 to 50%	10 to 50%				
NCCCC(=O)N[C@@H]1CC(=O)Nc2ccc(cc2)C[C@@H](C(=O)O)NC(=O)[C@@H](Cc2ccccc2)NC(=O)[C@H](Cc2ccc(-c3ccccc3)cc2)NC(=O)[C@@H](Cc2cccs2)NC1=O [Compound 380] (H-[GABA][dD][d2Thi][Bip][dF][Phe(4-NH2)]-OH; lactam 2-6)	< 10 µM	< 10%	< 10%				
NCCCC(=O)N[C@H]1CC(=O)Nc2ccc(cc2)C[C@@H](C(=O)O)NC(=O)[C@@H](Cc2ccccc2)NC(=O)[C@H](Cc2ccc(-c3ccccc3)cc2)NC(=O)[C@@H](Cc2cccs2)NC1=O [Compound 379] (H-[GABA]D[d2Thi][Bip][dF][Phe(4-NH2)]-OH; lactam 2-6)	< 10 µM	50 to 80%	10 to 50%				
O=C1CCC(=O)N[C@H](CCc2ccccc2)C(=O)N[C@@H](Cc2ccc(Cl)cc2Cl)C(=O)N[C@H](Cc2ccccc2)C(=O)N[C@@H](C(=O)O)Cc2ccc(cc2)N1 [Compound 112] ([d(hPhe)][Phe(2,4-Cl2)][dF][dPhe(4-NH2)]-OH; linker N-4 via Suc)	< 10 µM		< 10%				
O=C1CCC(=O)N[C@H](Cc2cccs2)C(=O)N[C@@H](Cc2ccc(C(F)(F)F)cc2)C(=O)N[C@H](Cc2ccccc2)C(=O)N[C@H](C(=O)O)Cc2ccc(cc2)N1 [Compound 89] ([d2Thi][Phe(4-CF3)][dF][Phe(4-NH2)]-OH; linker N-4 via Suc)	10 to 30 µM						< 10%
O=C1COc2ccc(cc2)C[C@@H](C(=O)N[C@@H](Cc2ccc(O)cc2)C(=O)O)NC(=O)[C@H](Cc2ccccc2)NC(=O)[C@H](Cc2ccc(-c3ccccc3)cc2)NC(=O)[C@H](Cc2cccs2)N1 [Compound 343]	< 10 µM	< 10%	10 to 50%				
